Tests used:
Acetylcholinesterase = Acetylcholinesterase (Electrophorus electricus, UniProt O42275)
Description: Inhibition of electric eel AchE by Ellman's assay

Butyrylcholinesterase = Butyrylcholinesterase (Equus caballus, UniProt Q9N1N9)
Sequence of Butyrylcholinesterase (Q9N1N9 whole entry): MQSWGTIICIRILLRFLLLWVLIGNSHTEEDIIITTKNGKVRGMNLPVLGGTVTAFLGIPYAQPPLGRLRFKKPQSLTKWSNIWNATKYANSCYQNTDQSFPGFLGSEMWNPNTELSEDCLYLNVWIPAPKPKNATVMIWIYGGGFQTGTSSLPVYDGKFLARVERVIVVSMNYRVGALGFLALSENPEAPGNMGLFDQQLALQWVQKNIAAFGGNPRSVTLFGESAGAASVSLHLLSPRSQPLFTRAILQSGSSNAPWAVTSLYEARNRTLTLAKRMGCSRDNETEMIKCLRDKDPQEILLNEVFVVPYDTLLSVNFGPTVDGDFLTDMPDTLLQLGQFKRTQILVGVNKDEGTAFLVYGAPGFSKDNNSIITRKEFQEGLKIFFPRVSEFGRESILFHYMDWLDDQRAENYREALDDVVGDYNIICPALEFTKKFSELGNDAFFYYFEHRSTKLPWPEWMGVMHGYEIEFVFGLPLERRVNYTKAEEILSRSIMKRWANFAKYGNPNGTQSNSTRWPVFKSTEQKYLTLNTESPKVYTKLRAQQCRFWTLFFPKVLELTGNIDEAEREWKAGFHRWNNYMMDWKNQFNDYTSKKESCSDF
Description: Inhibition of equine BChE by Ellman's assay

Sequence of Acetylcholinesterase (O42275 whole entry): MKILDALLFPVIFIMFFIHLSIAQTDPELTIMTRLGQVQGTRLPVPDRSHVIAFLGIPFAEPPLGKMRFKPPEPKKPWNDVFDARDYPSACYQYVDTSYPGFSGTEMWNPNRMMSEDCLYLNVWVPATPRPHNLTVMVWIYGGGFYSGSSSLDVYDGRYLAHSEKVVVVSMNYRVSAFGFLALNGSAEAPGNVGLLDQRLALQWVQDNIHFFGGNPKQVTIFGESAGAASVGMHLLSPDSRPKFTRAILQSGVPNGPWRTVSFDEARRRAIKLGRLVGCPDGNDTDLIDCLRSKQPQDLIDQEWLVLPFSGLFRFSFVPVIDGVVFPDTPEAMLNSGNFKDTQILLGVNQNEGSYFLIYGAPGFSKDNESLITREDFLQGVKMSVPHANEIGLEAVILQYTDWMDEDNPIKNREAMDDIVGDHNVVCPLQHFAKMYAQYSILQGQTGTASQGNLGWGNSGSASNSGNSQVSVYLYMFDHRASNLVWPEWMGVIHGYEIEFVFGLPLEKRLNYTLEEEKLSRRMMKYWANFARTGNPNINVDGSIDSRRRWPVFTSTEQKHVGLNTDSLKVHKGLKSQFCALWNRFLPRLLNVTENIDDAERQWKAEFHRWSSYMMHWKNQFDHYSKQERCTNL

SMILES | IC50 (Acetylcholinesterase) [nM] | IC50 (Butyrylcholinesterase) [nM]
COc1cc(/C=C/C(=O)NCCCCNc2c3c(nc4ccccc24)CCCC3)ccc1O | 7.6 | 5.9
COc1cc(/C=C/C(=O)NCCCNc2c3c(nc4ccccc24)CCCC3)ccc1O | 33 | 27
COc1cc(/C=C/C(=O)NCCCCCCCCNc2c3c(nc4ccccc24)CCCC3)ccc1O | 9.6 | 12.7
COc1cc(/C=C/C(=O)NCCCCCNc2c3c(nc4ccccc24)CCCC3)ccc1O | 4.4 | 6.7
NCCCNc1c2c(nc3ccccc13)CCCC2 | 69.5 | 5.5
NCCCCNc1c2c(nc3ccccc13)CCCC2 | 23.6 | 7.1
NCCCCCNc1c2c(nc3ccccc13)CCCC2 | 3.2 | 5
NCCCCCCCCNc1c2c(nc3ccccc13)CCCC2 | 3.5 | 1.4
COc1cc(/C=C/C(=O)NCCNc2c3c(nc4ccccc24)CCCC3)ccc1O | 38.6 | 34.1
NCCNc1c2c(nc3ccccc13)CCCC2 | 54.8 | 12.3

— ChEMBL document CHEMBL1145609, “Design and synthesis of tacrine-ferulic acid hybrids as multi-potent anti-Alzheimer drug candidates” (Bioorg Med Chem Lett, 2008)
